Measured values as given in US12504423B2, “Human in vitro cardiotoxicity model” (Brown University, priority 2020, dated 2025).
Read-outs that look alike come from different tables or passages of the source. One block for each molecule: values may come before it.

Key:
hiPSC-CM microtissues [1] = experiment: Cardiac TEEM: optical mapping of action potentials in 3D human cardiac microtissues
Experimental: Optical mapping and automated action potential duration analysis. The inventors used an Olympus MVX10 microscope to image 1.2×1.2-mm^2 regions. Microtissues were loaded with voltage-sensitive di-4-ANEPPS (5 μM for ten minutes at 35° C.) for measurements of membrane potential (Vm). […] Fluorescence images were filtered using nonlinear bilateral filter (spatial filter: 5×5 window, temporal filter: 21-point window) to preserve action potential upstrokes from blurring. Typically, four microtissues were recorded simultaneously/scan at this magnification. A single microtissue is typically covered by ˜60 pixels at this magnification. The pixels with action potentials were identified from Fast Fourier transformation (FFT) of fluorescence signals. After appropriate thresholding and image segmentation, the region of each microtissue was grouped and the fluorescence signals from the pixels in the same microtissue were average and used for action potential analysis.
Optical mapping and automated action potential analysis (alternative). Microtissues were loaded with voltage-sensitive di-4-ANEPPS (5 μM for 10 min at 35° C.) for measurements of membrane potential (Vm). […] Typically, four microtissues were recorded simultaneously per scan at this magnification. A step-by-step illustration of automated data analysis is available in FIGS. 4A-G. Briefly, the pixels with APs were identified from Fast Fourier transformation (FFT) of fluorescence signals. After appropriate thresholding and image segmentation, the region of each microtissue was grouped and the fluorescence signals from the pixels in the same microtissue were average and used for action potential analysis.
Validation and screening of toxicants for arrhythmogenic risk. […] Concentrations are selected to span human exposure levels or blood serum levels and quantify dose-dependent changes over a wide range (with a goal of more than 10,000× change in concentration and at least 4-6 doses). A single mold of microtissues is imaged for approximately 1 hour to assure quality recordings without signal degradation due to tissue degeneration, enabling measurement under control conditions (zero compound) and 3 doses.
Validation and screening of toxicants for arrhythmogenic risk (alternative). […] Microtissues were stimulated with a platinum field stimulation electrode. Myopacer EP field stimulator, IonOptix, Milton, MA, USA). […] BPA was dissolved in 10% ethanol stock solution and diluted in Tyrode solution to the final concentration. Microtissues were exposed to vehicle (DMSO or ethanol) and the indicated concentrations of test compounds for 20 min, and action potentials were measured as described above.
The Cardiac Tissue-Engineered Model (TEEM) uses human cardiomyocytes derived from human pluripotent stem cells, which express all the human proteins, ion channels and currents necessary for assessing a human-specific arrhythmic and cardiotoxic response, including the seven critical ion channels identified by the FDA's CiPA initiative. […] The intensity of the signal gives a reading of voltage (in the millivolt range) overtime, which is the action potential trace. A similar dye that fluoresces in response to the intracellular calcium (Ca^2+) concentration gives a calcium transient (CaT) for each activation of each cardiac microtissue. See above.

sodium channel Nav1.5 = sodium channel Nav1.5 (Homo sapiens, UniProt Q14524); settings: read-out: IC50, block of sodium channel Nav1.5; cited from earlier work
sodium channel Nav1.5, sequence (Q14524 whole entry): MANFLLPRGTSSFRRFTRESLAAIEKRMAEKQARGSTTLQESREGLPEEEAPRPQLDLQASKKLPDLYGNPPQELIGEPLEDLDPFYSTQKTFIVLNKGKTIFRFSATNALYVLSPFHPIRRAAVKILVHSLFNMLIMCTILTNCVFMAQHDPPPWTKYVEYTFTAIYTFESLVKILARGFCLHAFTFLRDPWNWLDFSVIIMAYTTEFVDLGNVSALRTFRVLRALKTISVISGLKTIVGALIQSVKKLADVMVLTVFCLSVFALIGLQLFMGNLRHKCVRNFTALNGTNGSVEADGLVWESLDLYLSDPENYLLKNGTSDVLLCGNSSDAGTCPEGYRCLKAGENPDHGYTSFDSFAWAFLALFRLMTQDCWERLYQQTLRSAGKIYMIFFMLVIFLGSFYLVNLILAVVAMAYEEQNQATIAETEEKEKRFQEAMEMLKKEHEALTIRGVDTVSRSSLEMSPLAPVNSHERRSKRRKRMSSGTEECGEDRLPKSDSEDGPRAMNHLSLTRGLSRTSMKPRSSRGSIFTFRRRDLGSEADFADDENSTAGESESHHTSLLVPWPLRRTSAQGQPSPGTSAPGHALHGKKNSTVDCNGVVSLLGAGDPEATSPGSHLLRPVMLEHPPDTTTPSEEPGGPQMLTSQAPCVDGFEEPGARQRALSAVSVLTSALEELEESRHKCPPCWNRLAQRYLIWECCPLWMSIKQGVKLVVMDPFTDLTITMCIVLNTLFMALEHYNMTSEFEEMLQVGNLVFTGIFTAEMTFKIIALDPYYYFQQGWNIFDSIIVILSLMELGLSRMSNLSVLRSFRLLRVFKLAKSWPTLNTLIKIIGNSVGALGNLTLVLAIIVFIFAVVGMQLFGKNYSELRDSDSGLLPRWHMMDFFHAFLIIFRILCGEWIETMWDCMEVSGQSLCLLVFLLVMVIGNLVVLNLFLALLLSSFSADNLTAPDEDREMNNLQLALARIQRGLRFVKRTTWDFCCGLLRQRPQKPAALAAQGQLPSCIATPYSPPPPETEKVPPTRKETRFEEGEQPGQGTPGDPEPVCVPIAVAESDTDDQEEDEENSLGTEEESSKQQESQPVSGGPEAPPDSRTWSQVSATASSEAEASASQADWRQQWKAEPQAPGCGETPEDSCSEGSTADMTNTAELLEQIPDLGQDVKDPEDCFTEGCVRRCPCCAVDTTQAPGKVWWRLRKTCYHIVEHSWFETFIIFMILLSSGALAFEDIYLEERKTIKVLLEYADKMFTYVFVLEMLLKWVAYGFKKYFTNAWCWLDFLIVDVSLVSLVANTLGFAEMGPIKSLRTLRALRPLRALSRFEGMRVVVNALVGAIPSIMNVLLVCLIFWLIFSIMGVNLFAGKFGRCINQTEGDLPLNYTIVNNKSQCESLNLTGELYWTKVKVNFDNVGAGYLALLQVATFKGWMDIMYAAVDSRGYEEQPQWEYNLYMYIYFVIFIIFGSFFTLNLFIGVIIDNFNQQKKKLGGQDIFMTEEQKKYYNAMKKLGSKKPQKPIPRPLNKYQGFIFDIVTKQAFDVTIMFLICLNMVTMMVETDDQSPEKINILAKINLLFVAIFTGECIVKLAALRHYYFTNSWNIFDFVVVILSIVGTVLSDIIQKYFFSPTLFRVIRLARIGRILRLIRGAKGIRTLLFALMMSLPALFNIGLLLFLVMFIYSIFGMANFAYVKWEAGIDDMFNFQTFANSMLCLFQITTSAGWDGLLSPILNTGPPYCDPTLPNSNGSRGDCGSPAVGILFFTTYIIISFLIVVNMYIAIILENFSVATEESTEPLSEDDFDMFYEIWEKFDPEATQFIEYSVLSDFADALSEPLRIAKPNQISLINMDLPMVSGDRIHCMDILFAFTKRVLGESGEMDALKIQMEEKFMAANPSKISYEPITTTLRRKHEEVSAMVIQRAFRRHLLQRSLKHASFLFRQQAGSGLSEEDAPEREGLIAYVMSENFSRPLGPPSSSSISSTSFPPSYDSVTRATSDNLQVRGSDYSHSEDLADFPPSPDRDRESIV

rats = settings: rodents; greater sensitivity in female rats than male rats; cited from earlier work
[2] = 1000 mg b.i.d.; blood serum; cited from earlier work
[3] = Ranolazine steady-state Cmax in blood serum (FDA documentation); format: in vivo; settings: human, 1000 mg, 1000 mg b.i.d., bracketed conversion
INCX = INCX (Homo sapiens, UniProt P32418); settings: cited from earlier work
peak ICa = peak ICa (Homo sapiens, UniProt Q13936); settings: cited from earlier work
late ICa = late ICa (Homo sapiens, UniProt Q13936); settings: cited from earlier work
[4] = system: late sodium current (INa,late); settings: read-out: IC50, late sodium current (INa,late) block; cited from earlier work
hiPSC-CM microtissues [5] = experiment: Calcium transient (CaT) recording of spontaneous activity in hiPSC-CM microtissues; format: cell-based, human; settings: 100 nM
Experimental: FIGS. 1A-C are a set of graphs showing the stimulation protocol and CaT metrics. […] CaTs were recorded using Rhod-2/AM. […] Activation Interval (AI), the time between two CaTs, will be measured before and after drug perfusion to detect altered spontaneous activity. CaTs recorded with the genetically encoded optogenetic probe GCaMP.
The inventors also developed a platform suitable for cardiotoxicity testing that can detect alteration in Cai release and removal processes from hiPSC-CM microtissues by measuring detailed kinetic parameters of Cai dynamics during a proposed stimulation protocol as shown in FIGS. 1A-C.

SMILES: Nc1ccncc1 [4-AP]
effect on APDtri (hiPSC-CM microtissues [1]): no effect on APDtri
APD (hiPSC-CM microtissues [1]; 0.5 mM): APD prolongation
slope of APDtri versus APDMxR (hiPSC-CM microtissues [1]; 0.5 mM, p=0.199): did not steepen

effect on APDtri (hiPSC-CM microtissues [1]): no effect on APDtri
SMILES: COC(=O)C1=C(C)NC(C)=C([N+](=O)[O-])C1c1ccccc1C(F)(F)F (stereo not shown) [BayK8644]

SMILES: CC(C)(c1ccc(O)cc1)c1ccc(O)cc1 [BPA, bisphenol-A]
IC50 (sodium channel Nav1.5): 25 µM
action potential duration measurements (hiPSC-CM microtissues [1]): shifts action potential duration measurements
action potential rise time (hiPSC-CM microtissues [1]): slowed action potential rise time
stimulation delay (hiPSC-CM microtissues [1]): increased stimulation delay
APD30 and APD50 relative to APD80 (hiPSC-CM microtissues [1]; female, human, 20 min): APD30 and APD50 were shortened more than APD80
Dose-dependent mean difference of APD30 (hiPSC-CM microtissues [1]; human, 20 min, 1 nM): 34.5043
Dose-dependent mean difference of APD60 (hiPSC-CM microtissues [1]; human, 20 min, 1 nM): 37.3566
Dose-dependent mean difference of APD80 (hiPSC-CM microtissues [1]; human, 20 min, 1 nM): 42.7763
Dose-dependent mean difference of APDM×R (hiPSC-CM microtissues [1]; human, 20 min, 1 nM): 34.0012
Dose-dependent mean difference of APDtri (hiPSC-CM microtissues [1]; human, 20 min, 1 nM): −3.327
Dose-dependent mean difference of Rise Time (hiPSC-CM microtissues [1]; human, 20 min, 1 nM): 1.176
Dose-dependent mean difference of APD30 (hiPSC-CM microtissues [1]; human, 20 min, 10 nM): −15.3826
Dose-dependent mean difference of APD60 (hiPSC-CM microtissues [1]; human, 20 min, 10 nM): −14.0569
Dose-dependent mean difference of APD80 (hiPSC-CM microtissues [1]; human, 20 min, 10 nM): 11.1129
Dose-dependent mean difference of APDM×R (hiPSC-CM microtissues [1]; human, 20 min, 10 nM): −14.786
Dose-dependent mean difference of APDtri (hiPSC-CM microtissues [1]; human, 20 min, 10 nM): −0.672
Dose-dependent mean difference of Rise Time (hiPSC-CM microtissues [1]; human, 20 min, 10 nM): −0.3497
Dose-dependent mean difference of APD30 (hiPSC-CM microtissues [1]; human, 20 min, 100 nM): −17.808
Dose-dependent mean difference of APD60 (hiPSC-CM microtissues [1]; human, 20 min, 100 nM): −16.8623
Dose-dependent mean difference of APD80 (hiPSC-CM microtissues [1]; human, 20 min, 100 nM): 10.0440
Dose-dependent mean difference of APDM×R (hiPSC-CM microtissues [1]; human, 20 min, 100 nM): −23.7763
Dose-dependent mean difference of APDtri (hiPSC-CM microtissues [1]; human, 20 min, 100 nM): −6.828
Dose-dependent mean difference of Rise Time (hiPSC-CM microtissues [1]; human, 20 min, 100 nM): −1.734
Dose-dependent mean difference of APD30 (hiPSC-CM microtissues [1]; human, 20 min, 1000 nM): −28.3006
Dose-dependent mean difference of APD60 (hiPSC-CM microtissues [1]; human, 20 min, 1000 nM): −31.0489
Dose-dependent mean difference of APD80 (hiPSC-CM microtissues [1]; human, 20 min, 1000 nM): −4.641
Dose-dependent mean difference of APDM×R (hiPSC-CM microtissues [1]; human, 20 min, 1000 nM): −40.7783
Dose-dependent mean difference of APDtri (hiPSC-CM microtissues [1]; human, 20 min, 1000 nM): −9.615
Dose-dependent mean difference of Rise Time (hiPSC-CM microtissues [1]; human, 20 min, 1000 nM): −2.203
concentration promoting arrhythmias (rats): 0.001 µM

Cmax ([3]; read-out: 95% of Cmax values): 0.98 to 14.2 µM
Cmax ([3]; read-out: mean steady-state Cmax): 6 µM
Dose-dependent mean difference of APD30 (hiPSC-CM microtissues [1]; human, 20 min, 2 μM): 4.692
Dose-dependent mean difference of APD60 (hiPSC-CM microtissues [1]; human, 20 min, 2 μM): −2.806
Dose-dependent mean difference of APD80 (hiPSC-CM microtissues [1]; human, 20 min, 2 μM): 4.629
Dose-dependent mean difference of APDM×R (hiPSC-CM microtissues [1]; human, 20 min, 2 μM): −9.87
Dose-dependent mean difference of APDtri (hiPSC-CM microtissues [1]; human, 20 min, 2 μM): −7.031
Dose-dependent mean difference of Rise Time (hiPSC-CM microtissues [1]; human, 20 min, 2 μM): 0.1436
Dose-dependent mean difference of APD30 (hiPSC-CM microtissues [1]; human, 20 min, 10 μM): 20.71
Dose-dependent mean difference of APD60 (hiPSC-CM microtissues [1]; human, 20 min, 10 μM): 20.5335
Dose-dependent mean difference of APD80 (hiPSC-CM microtissues [1]; human, 20 min, 10 μM): 79.1112
Dose-dependent mean difference of APDM×R (hiPSC-CM microtissues [1]; human, 20 min, 10 μM): 13.1316
Dose-dependent mean difference of APDtri (hiPSC-CM microtissues [1]; human, 20 min, 10 μM): −7.337
Dose-dependent mean difference of Rise Time (hiPSC-CM microtissues [1]; human, 20 min, 10 μM): 1.025
Dose-dependent mean difference of APD30 (hiPSC-CM microtissues [1]; human, 20 min, 100 μM): 57.9565
Dose-dependent mean difference of APD60 (hiPSC-CM microtissues [1]; human, 20 min, 100 μM): 108.574
Dose-dependent mean difference of APD80 (hiPSC-CM microtissues [1]; human, 20 min, 100 μM): 242.133
Dose-dependent mean difference of APDM×R (hiPSC-CM microtissues [1]; human, 20 min, 100 μM): 353.211
Dose-dependent mean difference of APDtri (hiPSC-CM microtissues [1]; human, 20 min, 100 μM): 244.733
Dose-dependent mean difference of Rise Time (hiPSC-CM microtissues [1]; human, 20 min, 100 μM): 12.5916
SMILES: COc1ccccc1OCC(O)CN1CCN(CC(=O)Nc2c(C)cccc2C)CC1 (stereo not shown) [Ranolazine, ranolazine]
mean steady-state Cmax [2]: 2569 ng/mL
IC50 (INCX): 91 µM
IC50 (peak ICa): 296 µM
IC50 (late ICa): 50 µM
IC50 [4]: 5.9 µM

average reduction of APD80 (hiPSC-CM microtissues [1]; human, 20 min, 100 nM): 45 milliseconds
SMILES: CC(C)NCC(O)c1ccc(O)c(O)c1 (stereo not shown) [Isoproterenol, isoproterenol]
spontaneous activity (CaTs, GCaMP) (hiPSC-CM microtissues [5]): spontaneous activity increased
